# Reference: patent US20090012014A1, “Compound, Composition and a Process Thereof” (INDUS BIOTECH PVT. LTD, priority 2007, published 2009)
# Several values for one entry are separate records, joined by “and”; a condition that tells them apart may be missing. Identical values can stand only once. Like-named read-outs stand apart in the source and are kept apart here. Marks after values point to notes of the source that are not given here.
# Assays:
# [1] = tested on: TNF-α; assay: TNF-α level in serum of FCA induced arthritic rat; type: in vivo
# Procedure: (§1) This activity mimics the onset of autoimmune damage to joints and tests the efficiency of drug against this damage. Leflunamide is taken as positive control. Here Swiss Wistar rats are treated with Freunds Complete Adjuvant (CFA) to induce chronic inflammation symptoms similar to rheumatis diseases. The symptoms appear by 13th day. The drug treatment is started from 13th day to 23rd day for 10 days.
# Effect of Test compound and standard drug Celecoxib on TNF-α level in FCA induced arthritis rat. The serum from the FCA induced arthritic rat was examined for Tumor necrosis factor alpha. The experimental protocol was same as example no.
# [2] = tested on: paw edema in Carrageenan model; assay: Acute study: Carrageenan induced paw edema; type: in vivo, Swiss Wistar rats; conditions: paw volume at 3 hrs
# Procedure: These tests are for the inhibition of inflammation caused by prostaglandins in short period of time. This can be tested in animal (Swiss Wistar rats) as per well known protocols which are treated with Carrageenan. This model tests out anti-inflammatory activity caused by prostaglandin inhibition. Celecoxib is given as a positive control to do a comparison and evaluate the efficacy of anti-inflammatory purified extract as described above in Prostaglandin inhibition in 3 hrs.
# Paw Volume measured is compared with Control group and standard drug, celecoxib. Paw volume initial to the paw volume at 1 h, 2 h, 3 h is measured and peak inhibition, which is at 3 hrs is noted down. In this model efficacy as well as dosage of drug is arrived by considering peak % inhibition. […] This is also not statistically significant.
# [3] = tested on: gastric mucosa; assay: Gastric ulcerogenic effects after repeated oral administration; type: in vivo, male Swiss Wistar rats; conditions: for Mean score of Lesion intensity: 7 consecutive days
# Excerpt: Gastric ulcerogenic effects of Test compound and celecoxib after repeated oral administration for 7 consecutive days to the male Swiss Wistar rats.
# In the control group, structure of the gastric mucosa appears normal.
# [4] = tested on: Cotton pellet Granuloma; assay: Sub acute study: cotton pellet granuloma; type: in vivo, Swiss Wistar rats; conditions: dried pellet weight after 7 days
# Procedure: This evaluates inflammation over a period of 7 days. This is done by classical animal model (in Swiss Wistar tats) of cotton pallet granuloma. Celecoxib is a positive control for comparison of the efficacy of Test Compound.
# 100 mg per kg is the optimal dose. A comparison is made with Celecoxib.
# [5] = tested on: C-reactive protein; assay: C-reactive protein test (CRP test kit) in FCA arthritis model; type: in vivo, Swiss Wistar rats; conditions: for C-reactive protein After 10 Day Treatment / C-reactive protein Before Treatment: CRP test kit, precipitate
# Procedure: This activity mimics the onset of autoimmune damage to joints and tests the efficiency of drug against this damage. Leflunamide is taken as positive control. Here Swiss Wistar rats are treated with Freunds Complete Adjuvant (CFA) to induce chronic inflammation symptoms similar to rheumatis diseases. The symptoms appear by 13th day. The drug treatment is started from 13th day to 23rd day for 10 days. […] In this method the CRP test kit ([…], Dreadnought Trading Estate Bridgeport Dorset DT6 5BU UK) was used for the measurement of CRP. The results are expressed either […] or -ve depending on the formation of precipitate Normal range of CRP: up to 6 mg/L. Below this level is considered to be negative.
# [6] = tested on: FCA induced arthritis; assay: Chronic study: FCA (Freunds Complete Adjuvant) induced arthritis; type: in vivo, Swiss Wistar rats; conditions: for Anti-inflammatory activity (% Inhibition) in FCA induced arthritis Day 18: treatment from 13th day
# Procedure: as §1
# In addition, a disseminated arthritic reaction (secondary response) developed from […] alter FCA injection. The swelling was observed both in the injected paw and in the non-injected contra lateral paw. The reduction of the planter volume was statistically significant for both hind legs. The test compound gave a very impressive reduction of 52% at 100 mg per kg dose which is statistically significant. This compared very well with DMARD drug Leflunomide. However, Leflunomide is highly nephrotoxic and cannot be administered for a long time.
# [7] = tested on: patients with rheumatoid arthritis
# [8] = male, Swiss Wistar, rat, in vivo, po, 5 mg/kg, 7 days
# [9] = out of the total 70 patients recruited
structure (smiles),measurement,setting,value
"Cc1ccc(-c2cc(C(F)(F)F)nn2-c2ccc(S(N)(=O)=O)cc2)cc1 [Celecoxib, reference compound]",Concentration of TNF-α in pg/mL Day 0,[1],28.9 pg/mL
same,Concentration of TNF-α in pg/mL Day 13,[1],47.9 pg/mL
same,Concentration of TNF-α in pg/mL Day 21,[1]; Day 21,33.6 pg/mL
same,Anti-inflammatory activity (% Inhibition) in Carrageenan model In 3 Hrs.,[2]; Dose 10 mg/kg,45.2** %
same,Mean score of Lesion intensity,[3]; Dose 5 mg/kg p.o.,1.6
same,Average of no. of ulcer per animal,[3]; [8],2
same,No. of animals with ulcer,[3]; [8],2
same,No. of animals with ulcer (%),[3]; [8],33.3%
same,Ulcer Index (UI),[3]; [8],3.7
same,Anti-inflammatory activity (% Inhibition) in Cotton pellet Granuloma,[4]; Dose 10 mg/kg,43.2** %
"Cc1oncc1C(=O)Nc1ccc(C(F)(F)F)cc1 [Leflunamide, reference compound]",C-reactive protein After 10 Day Treatment,[5],Negative (Normal range of CRP: up to 6 mg/L. Below this level is considered to be negative)
same,C-reactive protein Before Treatment,[5],Negative (Normal range of CRP: up to 6 mg/L. Below this level is considered to be negative)
same,Anti-inflammatory activity (% Inhibition) in FCA induced arthritis Day 18,[6]; Dose 10 mg/kg,35.22* %
same,Anti-inflammatory activity (% Inhibition) in FCA induced arthritis Day 23,"[6]; Dose 10 mg/kg, treatment 13th to 23rd day",76.55** %
CC(COC1OC(CO)C(O)C(O)C1O)C(C)CC1(O)CC2CC3C4CC=C5CC(OC6OC(CO)C(O)C(O)C6OC6OC(C)C(O)C(O)C6O)CCC5(C)C4CCC3(C)C2C1C (stereo not shown) [Test compound],Concentration of TNF-α in pg/mL Day 0,[1],36.8 pg/mL
same,Concentration of TNF-α in pg/mL Day 13,[1],45.3 pg/mL
same,Concentration of TNF-α in pg/mL Day 21,[1]; Day 21,36.1 pg/mL
same,Concentration of TNF-α in pg/mL Day 21,"[1]; Day 21, listed as experimental drug",inhibits TNF-α
same,HAQ (Health Assessment Questionnaire) 12 mths (mean),[7]; 12 months,4.4
same,JCSW (Joint count swelling) 12 mths (mean),[7]; 12 months,1.6
same,JCPT (Joint Count Pain/Tenders) 12 mths (mean),"[7]; 12 months, 16 mg per kg body weight",5.5
same,"CRP (C Reactive Protein), nephlometry, over time","[7]; 12 months, FIG. 2, listed as test compound",reduction
same,"RF (Rheumatoid factor) Titre, nephlometry, over time","[7]; 12 months, FIG. 3, listed as test compound",reduction
same,ESR 12 mths (mean),"[7]; 12 months, Westergren",66
same,painVAS (pain visual analogue scale) 12 mths (mean),"[7]; 12 months, scale 0-10 cms",3.6
same,patGlobal (patient global assessment) 12 mths (mean),"[7]; 12 months, scale 0-10 cms",3.4
same,phyGlobal (physician global assessment) 12 mths (mean),"[7]; 12 months, scale 0-10 cms",2.6
same,HAQ (Health Assessment Questionnaire) Baseline (mean),[7]; Baseline,8.8
same,HDL BASELINE,[7]; Baseline,44.6
same,LDL BASELINE,[7]; Baseline,117.08
same,HDL/LDL BASELINE,[7]; Baseline ratio,0.41
same,JCSW (Joint count swelling) Baseline (mean),"[7]; Baseline, 66 joints",9.5
same,JCPT (Joint Count Pain/Tenders) Baseline (mean),"[7]; Baseline, 68 joints, 16 mg per kg body weight",24.3
same,ESR Baseline (mean),"[7]; Baseline, Westergren",61.4
same,painVAS (pain visual analogue scale) Baseline (mean),"[7]; Baseline, scale 0-10 cms",6.6
same,patGlobal (patient global assessment) Baseline (mean),"[7]; Baseline, scale 0-10 cms",6.4
same,phyGlobal (physician global assessment) Baseline (mean),"[7]; Baseline, scale 0-10 cms",5.7
same,Patients in Clinical Remission: Duration (Months),[7]; Patient No. 019,8 Months
same,Patients in Clinical Remission: Duration (Months),"[7]; Patient No. 035*, ACR remission, ESR <30 mm",3 Months
same,Patients in Clinical Remission: Duration (Months),"[7]; Patient No. 037*, ACR remission, ESR <30 mm",3 Months
same,Patients in Clinical Remission: Duration (Months),"[7]; Patient No. 038*, ACR remission, ESR <30 mm",3 Months
same,Patients in Clinical Remission: Duration (Months),[7]; Patient No. 049,5 Months
same,Patients in Clinical Remission: Duration (Months),[7]; Patient No. 051,2 Months
same,Patients in Clinical Remission: Duration (Months),"[7]; Patient No. 054*, ACR remission, ESR <30 mm",3 Months
same,Patients in Clinical Remission: Duration (Months),[7]; Patient No. 057,6 Months
same,Patients in Clinical Remission: Duration (Months),[7]; Patient No. 059,5 Months
same,Patients in Clinical Remission: Duration (Months),"[7]; Patient No. 112*, ACR remission, ESR <30 mm",7 Months
same,Serum albumin,"[7]; at 12 months, printed 95% CI—0.35, −2.90, listed as test compound",significant improvements
same,Blood Urea Nitrogen,"[7]; at 12 months, printed (95%) CI 1.2, 35, listed as test compound",significant improvements
same,ESR Mean change,[7]; baseline to 12 months,−3.05
same,"Adverse alterations in routine haematology, biochemistry (renal and hepatic) and metabolic parameters","[7]; human, in vivo",no significant adverse alterations
same,HDL/LDL ratio of rheumatic patients after treatment,"[7]; human, in vivo",0.45
same,"Laboratory values for SGOT, SGTP, GGT, Serum bilirubin and Serum creatinine","[7]; human, in vivo",No significant changes
same,Side-effects recorded,"[7]; human, in vivo",Minor side-effects
same,HDL MEAN CHANGE,[7]; mean change from baseline,−1.57
same,HDL/LDL MEAN CHANGE,[7]; mean change from baseline,−6.1
same,LDL MEAN CHANGE,[7]; mean change from baseline,12.7
same,ACR 50 improvement response (patients responding),[7]; one year study,40%
same,Patients who satisfied the ACR criteria for remission that also includes the ESR response,[7]; one year study,5 patients
same,ACR 20 improvement response (patients responding),"[7]; one year study, 20% improvement in ACR factors",80%
same,"All clinical efficacy measures (ACR core set), overall result in words","[7]; one year study, P<0.05, listed as test compound",significant disease modifying anti-arthritic action
same,Patients completely asymptomatic as per ACR core set clinical measures (percent),[7]; [9],11.9%
same,Patients completely asymptomatic as per ACR core set clinical measures / remission of disease,[7]; [9],10 patients
same,C-reactive protein After 10 Day Treatment,[5],Negative (Normal range of CRP: up to 6 mg/L. Below this level is considered to be negative)
same,C-reactive protein Before Treatment,[5],Negative (Normal range of CRP: up to 6 mg/L. Below this level is considered to be negative)
same,C-reactive protein in FCA chronic arthritis model (in words),[5]; after treatment,decrease in C-reactive protein
same,Anti-inflammatory activity (% Inhibition) in Carrageenan model In 3 Hrs.,[2]; Dose 50 mg/kg,26.49* %
same,Anti-inflammatory activity (% Inhibition) in Carrageenan model In 3 Hrs.,[2]; Dose 100 mg/kg,32.54* %
same,Anti-inflammatory activity (% Inhibition) in Carrageenan model In 3 Hrs.,"[2]; Dose 100 mg/kg, listed as test compound",32.44%
same,Anti-inflammatory activity (% Inhibition) in Carrageenan model In 3 Hrs.,[2]; Dose 200 mg/kg,34.44* %
same,Anti-inflammatory activity (% Inhibition) in FCA induced arthritis Day 18,[6]; Dose 50 mg/kg,18.04%
same,Anti-inflammatory activity (% Inhibition) in FCA induced arthritis Day 23,"[6]; Dose 50 mg/kg, treatment 13th to 23rd day",29.07* %
same,Anti-inflammatory activity (% Inhibition) in FCA induced arthritis Day 18,[6]; Dose 100 mg/kg,32.38%
same,Anti-inflammatory activity (% Inhibition) in FCA induced arthritis Day 23,"[6]; Dose 100 mg/kg, treatment 13th to 23rd day (text values print no day), 100 mg/kg",52.81* %
same,Anti-inflammatory activity (% Inhibition) in FCA induced arthritis Day 23,"[6]; Dose 100 mg/kg, treatment 13th to 23rd day (text values print no day), listed as test compound, 100 mg/kg",52% and 56%
same,Anti-inflammatory activity (% Inhibition) in FCA induced arthritis Day 18,[6]; Dose 200 mg/kg,25.41%
same,Anti-inflammatory activity (% Inhibition) in FCA induced arthritis Day 23,"[6]; Dose 200 mg/kg, treatment 13th to 23rd day",56.55* %
same,Mean score of Lesion intensity,[3]; Dose 200 mg/kg p.o.,Nil
same,Average of no. of ulcer per animal,"[3]; rat, in vivo, po, 200 mg/kg",Nil
same,No. of animals with ulcer (%),"[3]; rat, in vivo, po, 200 mg/kg",Nil
same,Ulcer Index (UI),"[3]; rat, in vivo, po, 200 mg/kg",Nil
same,Anti-inflammatory activity (% Inhibition) in Cotton pellet Granuloma,[4]; Dose 50 mg/kg,24.2* %
same,Anti-inflammatory activity (% Inhibition) in Cotton pellet Granuloma,"[4]; Dose 100 mg/kg, 100 mg/kg",33.2* %
same,Anti-inflammatory activity (% Inhibition) in Cotton pellet Granuloma,"[4]; Dose 100 mg/kg, listed as test compound, 100 mg/kg",32.3%
same,Anti-inflammatory activity (% Inhibition) in Cotton pellet Granuloma,[4]; Dose 200 mg/kg,39.4** %
